Test systems include COLO 205 colon; SF-295 CNS; SK-MEL-5 melanoma; CCRF-CEM leukemia; MDA-MB-435; T-47D breast; IGROV1 ovarian; K-562 leukemia; HL-60(TB) leukemia; KM12 colon.
Holding throughout (experiment): growth of human tumour cells (NCI), 48 h

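Assay format: 96-well plates, 48-hour exposure. Here, GI50 denotes the concentration required for 50% inhibition of growth. The concentration for full growth arrest is given as TGI.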

Take `O=S(=O)(NCCCNc1cc(-c2cn(-c3ccccc3)nc2-c2cccc(O)c2)ccn1)c1ccc(Cl)cc1`: the GI50 in the test on COLO 205 colon was 1.57 µM; in the test with SF-295 CNS it was 1.42 µM; in the test with SK-MEL-5 melanoma, 1.23 µM; in the test on CCRF-CEM leukemia it was 2.43 µM; in the test on MDA-MB-435 it was 1.64 µM; in the test on T-47D breast, 1.48 µM. Further, the GI50 in the test on IGROV1 ovarian was 2.96 µM; with K-562 leukemia it was 0.437 µM; in the test with HL-60(TB) leukemia, 2.09 µM; with KM12 colon it was 1.95 µM. Also, the TGI with COLO 205 colon came to 3.16 µM; in the test on SF-295 CNS it was 3.29 µM; in the test on SK-MEL-5 melanoma, 2.55 µM; in the test with CCRF-CEM leukemia it was 7.85 µM; with MDA-MB-435, 3.2 µM; in the test with T-47D breast, 5.21 µM. For the same compound, the TGI in the test with IGROV1 ovarian stood at 13.2 µM; in the test with K-562 leukemia, 2.5 µM; with HL-60(TB) leukemia, 5.61 µM; with KM12 colon it was 4.93 µM.

For the compound `O=C(/C=C/c1cccnc1)c1ccccc1O`, the GI50 in the test on COLO 205 colon is 14.6 µM; in the test on SF-295 CNS, 16.6 µM; in the test with SK-MEL-5 melanoma, 16.1 µM; in the test on CCRF-CEM leukemia, 22.7 µM; in the test with MDA-MB-435, 16.4 µM; in the test with T-47D breast it was 21 µM. Also, the GI50 with IGROV1 ovarian is 20.1 µM; with K-562 leukemia, 20.9 µM; with HL-60(TB) leukemia it was 18.1 µM; with KM12 colon, 32.2 µM. The TGI in the test on COLO 205 colon is 30.1 µM; with SF-295 CNS it was 41.7 µM; in the test on SK-MEL-5 melanoma it was 31.1 µM; in the test on CCRF-CEM leukemia, more than 100 µM; in the test on MDA-MB-435 it was 37 µM; in the test on T-47D breast, more than 100 µM. In addition, the TGI is 50 µM in the test on IGROV1 ovarian, 80 µM in the test with K-562 leukemia, 43 µM in the test with HL-60(TB) leukemia and more than 100 µM with KM12 colon.

With `CCN(CC(COc1ccc2c(c1)[n+]([O-])nc(N)[n+]2[O-])OC(C)=O)C(C)=O` (centres undefined), the TGI with COLO 205 colon, with SF-295 CNS, in the test on SK-MEL-5 melanoma, in the test on CCRF-CEM leukemia, in the test with MDA-MB-435 and in the test with T-47D breast was more than 100 µM each time. The TGI in the test on IGROV1 ovarian, in the test with K-562 leukemia, with HL-60(TB) leukemia and in the test with KM12 colon was more than 100 µM in each case.

As for `Cc1ccccc1/C=C1\CN(C(=O)OC(C)(C)C)C/C(=C\c2ccccc2C)C1=O`, the GI50 with COLO 205 colon was 2.22 µM; with SF-295 CNS it was 2.19 µM; in the test with SK-MEL-5 melanoma, 2.12 µM; in the test on CCRF-CEM leukemia, 2.9 µM; in the test with MDA-MB-435, 2.51 µM; in the test with T-47D breast, 3.78 µM. Besides, the GI50 with IGROV1 ovarian is 2.26 µM; with K-562 leukemia, 2.86 µM; in the test on HL-60(TB) leukemia it was 2.47 µM; in the test with KM12 colon, 2.03 µM. Moreover, the TGI in the test on COLO 205 colon is 5.25 µM; in the test with SF-295 CNS, 5.37 µM; with SK-MEL-5 melanoma, 4.49 µM; with CCRF-CEM leukemia, 12.6 µM; in the test with MDA-MB-435, 5.45 µM; in the test with T-47D breast it was more than 100 µM. For the same compound, the TGI with IGROV1 ovarian was 6.26 µM; in the test on K-562 leukemia it was more than 100 µM; in the test with HL-60(TB) leukemia, 8.8 µM; in the test with KM12 colon it was 4.68 µM.

On to `N=c1ccn2c(n1)O[C@@H]1[C@@H](O)[C@H](CO)O[C@@H]12`, for which the GI50 is 2.41 µM with COLO 205 colon; 16.2 µM with SF-295 CNS; 15.5 µM in the test with SK-MEL-5 melanoma; 0.0773 µM in the test on CCRF-CEM leukemia; 4.13 µM in the test with MDA-MB-435; 8.96 µM in the test on T-47D breast. Moreover, the GI50 was 11 µM in the test with IGROV1 ovarian, more than 100 µM with K-562 leukemia, 8.41 µM with HL-60(TB) leukemia and 27.3 µM with KM12 colon. For the same compound, the TGI in the test with COLO 205 colon, in the test with SF-295 CNS, in the test on SK-MEL-5 melanoma, in the test with CCRF-CEM leukemia, in the test with MDA-MB-435 and with T-47D breast was more than 100 µM each time. In addition, the TGI in the test on IGROV1 ovarian, in the test with K-562 leukemia, in the test on HL-60(TB) leukemia and with KM12 colon was more than 100 µM in each case.

As for `O=C1c2cccnc2C(=O)c2c1c(C(=O)OCCN1CCOCC1)c1ccccn21`, the GI50 is 0.137 µM with COLO 205 colon; 0.0197 µM in the test on SF-295 CNS; 0.0189 µM with SK-MEL-5 melanoma; 0.126 µM in the test with CCRF-CEM leukemia; 0.0387 µM with MDA-MB-435; 0.228 µM in the test with T-47D breast. Moreover, the GI50 in the test with IGROV1 ovarian was 0.0406 µM; with K-562 leukemia it was 0.0198 µM; with HL-60(TB) leukemia it was 0.0789 µM; in the test with KM12 colon, 0.0725 µM. Besides, the TGI with COLO 205 colon came to 0.69 µM; in the test with SF-295 CNS it was 1.05 µM; in the test with SK-MEL-5 melanoma, 0.135 µM; in the test with CCRF-CEM leukemia, 6.8 µM; in the test on MDA-MB-435, 0.65 µM; in the test with T-47D breast, 5.25 µM. Moreover, the TGI with IGROV1 ovarian stood at 9.91 µM; in the test with HL-60(TB) leukemia, 3.21 µM; in the test with KM12 colon, 15.7 µM.

`CCN(CC)CC(O)C1CCC(c2ccccc2)CC1` (centres undefined): the TGI in the test with COLO 205 colon is 29.2 µM; in the test with SF-295 CNS, 36.6 µM; in the test on SK-MEL-5 melanoma it was 30.4 µM; in the test on CCRF-CEM leukemia it was 82.6 µM; with MDA-MB-435, 40.2 µM; in the test on T-47D breast, more than 100 µM. Further, the TGI was more than 100 µM in the test on IGROV1 ovarian, more than 100 µM in the test with K-562 leukemia, 58 µM in the test on HL-60(TB) leukemia and 71.3 µM with KM12 colon.

As to `CCN1CCN(C(=O)[C@]23CCC(C)(C)C[C@@H]2C2=CC[C@@H]4[C@@]5(C)C/C(=C/c6cccnc6)C(=O)C(C)(C)[C@@H]5CC[C@@]4(C)[C@]2(C)CC3)CC1`, the GI50 in the test on COLO 205 colon is 1.89 µM; with SF-295 CNS, 1.66 µM; in the test with SK-MEL-5 melanoma, 1.63 µM; in the test on CCRF-CEM leukemia, 2.1 µM; with MDA-MB-435, 1.48 µM; with T-47D breast it was 2.61 µM. The GI50 with IGROV1 ovarian is 1.91 µM; with K-562 leukemia it was 1.43 µM; in the test on HL-60(TB) leukemia, 0.443 µM; in the test on KM12 colon it was 1.58 µM. Besides, the TGI was 4.74 µM in the test with COLO 205 colon; 3.15 µM with SF-295 CNS; 3 µM with SK-MEL-5 melanoma; 9.02 µM with CCRF-CEM leukemia; 3.11 µM in the test with MDA-MB-435; 13.7 µM with T-47D breast. Further, the TGI with IGROV1 ovarian was 4.16 µM; in the test on K-562 leukemia, more than 100 µM; in the test with HL-60(TB) leukemia, 3.34 µM; in the test on KM12 colon, 3.26 µM.

Source of the values: PubChem BioAssay (NCI).
